Laboratory results taken from patent publication US6379563B1, “Alkylamines as biofilm deactivation agents” (Albemarle Corporation, priority 2000, dated 2002).
Like-named read-outs stand apart in the source and are kept apart here.

Columns and labels:
[1] = test system: Pseudomonas aeruginosa (ATCC 15442) biofilms; test: MBEC test, 24-hour biofilm, one hour biocide challenge;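 for all read-outs here: Peg-grown biofilms exposed to biocide, then regrowth in broth 18 h at 35 °C, turbidity by absorbance at 650 nm, above 0.100 counted as growth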; assay type: cell-based; settings: for biofilm deactivation at 200 ppm (regrowth optical density measurements) / minimum biofilm eradication concentration (MBEC) / MBEC, avg. / MBEC, ppm (first of duplicate runs) / MBEC, ppm (second of duplicate runs): 24-hour biofilm, 1 hour contact; for minimum biofilm eradication concentration (MBEC) / MBC: Pseudomonas aeruginosa, ATCC15442, 1 h
Excerpt: The MBEC technique consists of growing identical 24-hour biofilms on 96 pegs arrayed in 12 rows and 8 columns. The biofilms then are challenged with decreasing concentrations of selected antibiotics and/or biocides. After a certain challenge time (generally one hour), the biofilms are placed in 96 individual wells of growth media and ultra-sonicated to deactivate any surviving organisms. After culturing overnight, the wells are checked for turbidity. Clear, transparent wells indicate complete deactivation of the biofilm. Conversely, turbidity (“growth”) indicates lack of complete deactivation of the biofilm.
The minimum biofilm deactivation concentration (MBEC) is defined as the minimum concentration of an agent that completely deactivates biofilm bacteria. […] Unless otherwise indicated, the biofilms used in the examples below consisted of a pure culture of Pseudomonas aeruginosa (ATCC 15442).
Pseudomonas aeruginosa (ATCC 15442) biofilms were prepared on the 96 pegs of the MBEC plate by aerobic incubation in simple salts medium with 0.1% glucose (24 hours, 35° C.). The pegs were rinsed in synthetic water (SW) and then challenged by the biocide for one hour. Following the biocide challenge, the pegs were rinsed twice with SW and then sonicated into Mueller-Hinton broth (225 μL per well). The broth was then incubated for 18 hours at 35° C.

[2] = test system: 7-day biofilm formed using P. aeruginosa; test: MBEC test, 7-day biofilm, one hour biocide challenge; assay type: cell-based, Pseudomonas aeruginosa; settings: 1 hour contact; for MBEC, avg., Example 4 / MBEC, ppm (first of duplicate runs), Example 4 / MBEC, ppm (second of duplicate runs), Example 4: Example 4, ppm oxidant (as Cl2) or ppm active
Excerpt: The MBEC technique consists of growing identical 24-hour biofilms on 96 pegs arrayed in 12 rows and 8 columns. The biofilms then are challenged with decreasing concentrations of selected antibiotics and/or biocides. After a certain challenge time (generally one hour), the biofilms are placed in 96 individual wells of growth media and ultra-sonicated to […] any surviving organisms. After culturing overnight, the wells are checked for turbidity. Clear, transparent wells indicate complete deactivation of the biofilm. Conversely, turbidity (“growth”) indicates lack of complete deactivation of the biofilm.
After the 18 hour incubation period, the recovery wells were checked for turbidity. Clear, transparent wells indicated complete deactivation of the biofilm. Conversely, turbidity indicated the lack of complete deactivation of the biofilm. The minimum biofilm deactivation concentration (MBEC) is defined as the minimum concentration of agent which results in complete deactivation of the biofilm. MBEC endpoints were unambiguously determined by absorbance at 650 nm. using UV visible spectroscopy. An absorbance >0.100 was considered a positive indication of growth.
Pseudomonas aeruginosa (ATCC 15442) biofilms were prepared as described in Example I. The 7-day biofilms were prepared by a modification of the above procedure. Each day, spent media was replaced with fresh media and inocula.
Older biofilms offer increased resistance to biocides. Studies were extended to 7-day biofilms formed using P. aeruginosa. The procedure used to form the 7-day biofilm was the same as in Example 1, except that each day, spent media was replaced with fresh media and inocula. This biofilm was then challenged with oxidizing and non-oxidizing biocides.
Another 7-day biofilm was prepared from P. aeruginosa, as in EXAMPLE 3. This biofilm was then challenged with several common oxidizing and non-oxidizing biocides.

[3] = from Bodor, Gabanyi, Wang, JACS 111, 3783 (1989); cited from earlier work
[4] = average of duplicate runs, blends: total amount of components (1:1 ratio), read-out: MBEC, avg.
[5] = blends: total amount of components (1:1 ratio), read-out: MBEC, ppm (first of duplicate runs)
[6] = blends: total amount of components (1:1 ratio), read-out: MBEC, ppm (second of duplicate runs)
[7] = blends: total biocide, read-out: MBEC
[8] = read-out: MBEC, avg., 24-hour biofilm, 1 hour contact, average of duplicate runs, blends: total amount of components (1:1 ratio)
[9] = read-out: MBEC, ppm (first of duplicate runs), 24-hour biofilm, 1 hour contact, blends: total amount of components (1:1 ratio)
[10] = read-out: MBEC, ppm (second of duplicate runs), 24-hour biofilm, 1 hour contact, blends: total amount of components (1:1 ratio)
[11] = average of duplicate runs, blends: total amount of components (1:1 ratio)
[12] = blends: total amount of components (1:1 ratio)
[13] = Example 3, ppm oxidant (as Cl2) or ppm active

SMILES	minimum biofilm eradication concentration (MBEC) [1, 4]	minimum biofilm eradication concentration (MBEC) [1, 5]	minimum biofilm eradication concentration (MBEC) [1, 6]	minimum biofilm eradication concentration (MBEC) [1, 7]	also measured
CCCCCCCCCCCCCCCCN(C)C [N,N-Dimethylhexadecylamine]	> 200 µg/mL	> 200 µg/mL	> 200 µg/mL	400 to 800 µg/mL	biofilm deactivation at 200 ppm (regrowth optical density measurements) [1]: evidence of biofilm deactivation
CCCCCCCCCCCCCCN(C)C [N,N-Dimethyltetradecylamine]	> 200 µg/mL	> 200 µg/mL	> 200 µg/mL	400 to 800 µg/mL	biofilm deactivation at 200 ppm (regrowth optical density measurements) [1]: evidence of biofilm deactivation
CCCCCCN [1-Hexylamine]	1600 µg/mL	1600 µg/mL	1600 µg/mL	–	–
OC[P+](CO)(CO)CO.[Cl-] [THPC, tetrakis(hydroxymethyl)phosphonium chloride, reference compound]	–	–	–	–	MBC [1, 8]: 100 µg/mL; MBC [1, 9]: 100 µg/mL; MBC [1, 10]: 100 µg/mL
CCCCCCCCCC[N+](C)(C)CCCCCCCCCC.[Cl-] [DAQ 1010, Didecyldimethyl ammonium chloride]	–	–	–	–	MBC ([1]; read-out: MBEC, 24-hour biofilm, 1 hour contact, blends: total biocide): ~38 µg/mL; MBC [1, 8]: 50 µg/mL; MBC [1, 10]: 25 µg/mL; MBEC on 7-day biofilm [2]: 75 ppm; MBEC, avg., Example 4 [2]: 75 ppm; MBEC, ppm (first of duplicate runs), Example 4 [2]: 100 ppm; MBEC, ppm (second of duplicate runs), Example 4 [2]: 50 ppm
CCCCN(C)CCCC [CH3(C4H9)2N]	–	–	–	–	MBEC, avg. [1, 11]: >800 ppm; MBEC, ppm (first of duplicate runs) [1, 12]: >800, >800 ppm; MBEC, ppm (second of duplicate runs) [1, 12]: >800, >800 ppm
CCCCCCCCNCCCCCCCC [N,N-Dioctylamine]	1600 µg/mL	1600 µg/mL	1600 µg/mL	1600 µg/mL	–
CCCCCCCCCCCCN(C)C [N,N-Dimethyldodecylamine]	–	–	–	–	MBC [1, 8]: > 200 µg/mL; MBC [1, 9]: > 200 µg/mL; MBC [1, 10]: > 200 µg/mL
CCCCN [1-Butylamine]	–	–	–	–	logKow experimental [3]: 0.87
CCCCCCCCCCCCCCCCN [1-Hexadecylamine]	200 µg/mL	200 µg/mL	200 µg/mL	200 µg/mL	–
CCCCCCCCN(C)C [N,N-Dimethyloctylamine]	> 800 µg/mL	> 800 µg/mL	> 800 µg/mL	–	–
CCCCCCCCCCCCCCN [1-Tetradecylamine]	25 µg/mL	25 µg/mL	25 µg/mL	25 µg/mL	–
CCCCNCCCC [N,N-Dibutylamine]	> 1600 µg/mL	> 1600 µg/mL	> 1600 µg/mL	–	logKow experimental [3]: 2.76
CCCCCCN(C)CCCCCC [CH3(C6H13)2N]	–	–	–	–	MBEC, avg. [1, 11]: >800 ppm; MBEC, ppm (first of duplicate runs) [1, 12]: >800, >800 ppm; MBEC, ppm (second of duplicate runs) [1, 12]: >800, >800 ppm
CCCCCCCCN(C)CCCCCCCC [CH3(C8H17)2N, Dioctylmethylamine]	800 µg/mL	800 µg/mL	800 µg/mL	800 µg/mL	–
CCCCCCCCCCCCN [1-Dodecylamine]	25 µg/mL	25 µg/mL	25 µg/mL	~38 µg/mL	MBEC on 7-day biofilm [2]: 75 ppm; MBEC, avg., Example 4 [2]: 75 ppm; MBEC, ppm (first of duplicate runs), Example 4 [2]: 100 ppm; MBEC, ppm (second of duplicate runs), Example 4 [2]: 50 ppm
O=c1n(Cl)c(=O)n(Cl)c(=O)n1Cl [Cl2 (from Trichlor), trichloroisocyanuric acid]	–	–	–	–	MBEC on 7-day biofilm [2]: 20 ppm; MBEC, ppm (first of duplicate runs), Example 3 [2, 13]: 5 ppm; MBEC, ppm (second of duplicate runs), Example 3 [2, 13]: > 10 ppm; MBEC, avg., Example 4 [2]: 20 ppm; MBEC, ppm (first of duplicate runs), Example 4 [2]: 20, 20 ppm; MBEC, ppm (second of duplicate runs), Example 4 [2]: 20, 20 ppm
CCCCCCCCCCN [1-Decylamine]	200 µg/mL	200 µg/mL	200 µg/mL	200 µg/mL	–
CCCCCCCCCCN(C)CCCCCCCCCC [DAMA 1010 Amine, didecylmethylamine]	400 µg/mL	400 µg/mL	400 µg/mL	400 µg/mL	–
CCCCCCCCN [1-Octylamine]	400 µg/mL	400 µg/mL	400 µg/mL	400 µg/mL	–
O=CCCCC=O [glutaraldehyde, reference compound]	50 µg/mL	50 µg/mL	50 µg/mL	50 to 100 µg/mL	MBEC on 7-day biofilm [2]: about 200 ppm; MBEC, avg., Example 3 [2, 13]: ˜200 ppm; MBEC, ppm (first of duplicate runs), Example 3 [2, 13]: 100 ppm; MBEC, ppm (second of duplicate runs), Example 3 [2, 13]: > 200 ppm
CCCCN(C)C [N,N-Dimethylbutylamine]	–	–	–	–	logKow experimental [3]: 1.70
CCCCCCCCCCN(C)C [N,N-Dimethyldecylamine]	> 400 µg/mL	> 400 µg/mL	> 400 µg/mL	–	–
